These results are taken from US20260284201A1, “COMPOSITIONS AND METHODS FOR TREATING TENDON AND BONE INJURIES” (The United States Government as represented by the …, priority 2023, published 2026).

For data set [1], the system named is osteoclasts. Particulars: cited from earlier work.
Data set [2] deals with osteoporotic rats. To be noted: cited from earlier work.
The test system of data set [3] is rat rotator cuff repairs. To be noted: cited from earlier work.
Data set [4] has as its system canine tendon-to-bone healing. To be noted: cited from earlier work.
Data set [5] concerns osteoporotic mouse model. To be noted: 1.25 mg/kg intravenously; cited from earlier work.
Data set [6] relates to fracture healing. To be noted: 1.25 mg/kg systemically once per week; cited from earlier work.
Data set [7] has as its system mice in space. Description: Bone volume among mice in space (unpublished data). The format is in vivo. Particulars: 10 mg/kg once per week.

As for `CC(O)(P(=O)(O)O)P(=O)(O)O` [etidronate], the “inhibition of the function of osteoclasts” value in data set [1] is “do not inhibit the function of osteoclasts”. As to `O=P(O)(O)C(O)(Cc1cccnc1)P(=O)(O)O` [risedronate], in data set [2], the rotator cuff healing entry is listed as “beneficial to rotator cuff healing”.

methylhydroxyl diphosphonate: the “inhibition of the function of osteoclasts” value in data set [1] was “do not inhibit the function of osteoclasts”. Regarding `O=P(O)(O)C(O)(Cn1ccnc1)P(=O)(O)O` [zolendronate], the tendon-to-bone healing result in data set [3] is recorded as “negative effects on tendon-to-bone healing”. Take `NCCCC(O)(P(=O)(O)O)P(=O)(O)O` [alendronate]: in data set [4], the “incidence of suture pull through tendon” value is on record as “lower incidence of suture pull through tendon” and the “ultimate load to failure” value is given as “improved ultimate load to failure”.

B1: rhNELL-1: recombinant human NELL-1 (protein, UniProt Q92832 22-810, looked up)
Protein kinase C-binding …: FGMDPDLQMDIVTELDLVNTTLGVAQVSGMHNASKAFLFQDIEREIHAAPHVSEKLIQLFRNKSEFTILATVQQKPSTSGVILSIRELEHSYFELESSGLRDEIRYHYIHNGKPRTEALPYRMADGQWHKVALSVSASHLLLHVDCNRIYERVIDPPDTNLPPGINLWLGQRNQKHGLFKGIIQDGKIIFMPNGYITQCPNLNHTCPTCSDFLSLVQGIMDLQELLAKMTAKLNYAETRLSQLENCHCEKTCQVSGLLYRDQDSWVDGDHCRNCTCKSGAVECRRMSCPPLNCSPDSLPVHIAGQCCKVCRPKCIYGGKVLAEGQRILTKSCRECRGGVLVKITEMCPPLNCSEKDHILPENQCCRVCRGHNFCAEGPKCGENSECKNWNTKATCECKSGYISVQGDSAYCEDIDECAAKMHYCHANTVCVNLPGLYRCDCVPGYIRVDDFSCTEHDECGSGQHNCDENAICTNTVQGHSCTCKPGYVGNGTICRAFCEEGCRYGGTCVAPNKCVCPSGFTGSHCEKDIDECSEGIIECHNHSRCVNLPGWYHCECRSGFHDDGTYSLSGESCIDIDECALRTHTCWNDSACINLAGGFDCLCPSGPSCSGDCPHEGGLKHNGQVWTLKEDRCSVCSCKDGKIFCRRTACDCQNPSADLFCCPECDTRVTSQCLDQNGHKLYRSGDNWTHSCQQCRCLEGEVDCWPLTCPNLSCEYTAILEGECCPRCVSDPCLADNITYDIRKTCLDSYGVSRLSGSVWTMAGSPCTTCKCKNGRVCCSVDFECLQNN
Turning to B1, in data set [5], the bone formation entry is on record as “lead to bone formation”.

B2: NELL-1-PEG: chemically modified version of NELL-1 protein using polyethylene glycol (PEGylation) (protein, UniProt Q92832 22-810, looked up)
Protein kinase C-binding …: FGMDPDLQMDIVTELDLVNTTLGVAQVSGMHNASKAFLFQDIEREIHAAPHVSEKLIQLFRNKSEFTILATVQQKPSTSGVILSIRELEHSYFELESSGLRDEIRYHYIHNGKPRTEALPYRMADGQWHKVALSVSASHLLLHVDCNRIYERVIDPPDTNLPPGINLWLGQRNQKHGLFKGIIQDGKIIFMPNGYITQCPNLNHTCPTCSDFLSLVQGIMDLQELLAKMTAKLNYAETRLSQLENCHCEKTCQVSGLLYRDQDSWVDGDHCRNCTCKSGAVECRRMSCPPLNCSPDSLPVHIAGQCCKVCRPKCIYGGKVLAEGQRILTKSCRECRGGVLVKITEMCPPLNCSEKDHILPENQCCRVCRGHNFCAEGPKCGENSECKNWNTKATCECKSGYISVQGDSAYCEDIDECAAKMHYCHANTVCVNLPGLYRCDCVPGYIRVDDFSCTEHDECGSGQHNCDENAICTNTVQGHSCTCKPGYVGNGTICRAFCEEGCRYGGTCVAPNKCVCPSGFTGSHCEKDIDECSEGIIECHNHSRCVNLPGWYHCECRSGFHDDGTYSLSGESCIDIDECALRTHTCWNDSACINLAGGFDCLCPSGPSCSGDCPHEGGLKHNGQVWTLKEDRCSVCSCKDGKIFCRRTACDCQNPSADLFCCPECDTRVTSQCLDQNGHKLYRSGDNWTHSCQQCRCLEGEVDCWPLTCPNLSCEYTAILEGECCPRCVSDPCLADNITYDIRKTCLDSYGVSRLSGSVWTMAGSPCTTCKCKNGRVCCSVDFECLQNN
modifications: PEG
Turning to B2, in data set [6], the “ectopic bone formation, radiographically or on organ retrieval analysis” value was “no evidence of ectopic bone formation”; the fracture healing result was “enhance fracture healing”; the toxicology testing entry is “no abnormalities detected on toxicology testing”.

B3: BP-NELL-1-PEG: NELL-1-PEG covalently bound to BP molecules (conjugate, UniProt Q92832 22-810, looked up)
Protein kinase C-binding …: FGMDPDLQMDIVTELDLVNTTLGVAQVSGMHNASKAFLFQDIEREIHAAPHVSEKLIQLFRNKSEFTILATVQQKPSTSGVILSIRELEHSYFELESSGLRDEIRYHYIHNGKPRTEALPYRMADGQWHKVALSVSASHLLLHVDCNRIYERVIDPPDTNLPPGINLWLGQRNQKHGLFKGIIQDGKIIFMPNGYITQCPNLNHTCPTCSDFLSLVQGIMDLQELLAKMTAKLNYAETRLSQLENCHCEKTCQVSGLLYRDQDSWVDGDHCRNCTCKSGAVECRRMSCPPLNCSPDSLPVHIAGQCCKVCRPKCIYGGKVLAEGQRILTKSCRECRGGVLVKITEMCPPLNCSEKDHILPENQCCRVCRGHNFCAEGPKCGENSECKNWNTKATCECKSGYISVQGDSAYCEDIDECAAKMHYCHANTVCVNLPGLYRCDCVPGYIRVDDFSCTEHDECGSGQHNCDENAICTNTVQGHSCTCKPGYVGNGTICRAFCEEGCRYGGTCVAPNKCVCPSGFTGSHCEKDIDECSEGIIECHNHSRCVNLPGWYHCECRSGFHDDGTYSLSGESCIDIDECALRTHTCWNDSACINLAGGFDCLCPSGPSCSGDCPHEGGLKHNGQVWTLKEDRCSVCSCKDGKIFCRRTACDCQNPSADLFCCPECDTRVTSQCLDQNGHKLYRSGDNWTHSCQQCRCLEGEVDCWPLTCPNLSCEYTAILEGECCPRCVSDPCLADNITYDIRKTCLDSYGVSRLSGSVWTMAGSPCTTCKCKNGRVCCSVDFECLQNN
modifications: PEG; bisphosphonate conjugate
As for B3, the bone volume result in data set [7] was “preserve bone volume”.
